# Counter-ions that a name gives are not always drawn.
# Target: T1, human PAI-1 (Homo sapiens, UniProt P05121)
# Experiment: Measurement of PAI-1 inhibitory activity of compound group 1 (t-PA, S-2288 chromogenic substrate)
# Settings: read-out: PAI-1 activity %
# Method: Subsequently, human-derived tissue plasminogen activator (t-PA) (manufactured by American Diagnostica, Inc. (USA); the same applies hereinafter) adjusted to 0.35 pmol/μL was added thereto, and the mixture was further incubated at 37° C. for 15 minutes.
# T1 sequence (P05121 24-402): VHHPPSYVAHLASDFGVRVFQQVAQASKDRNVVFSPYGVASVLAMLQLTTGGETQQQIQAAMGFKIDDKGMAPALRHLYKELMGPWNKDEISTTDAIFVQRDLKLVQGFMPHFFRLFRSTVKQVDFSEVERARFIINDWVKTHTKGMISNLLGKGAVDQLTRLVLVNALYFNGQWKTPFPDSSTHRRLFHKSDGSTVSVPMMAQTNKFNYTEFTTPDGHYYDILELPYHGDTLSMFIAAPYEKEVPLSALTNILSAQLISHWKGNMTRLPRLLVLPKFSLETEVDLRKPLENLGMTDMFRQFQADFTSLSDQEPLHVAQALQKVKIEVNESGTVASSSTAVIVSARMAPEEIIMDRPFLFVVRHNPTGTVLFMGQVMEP
Compound,activity at 20 µM,activity at 50 µM
"O=C(O)c1cc(Cl)ccc1NC(=O)c1ccccc1-c1ccccc1 [Example 6, 2-[(biphenyl-2-ylcarbonyl)amino]-5-chlorobenzoic acid]",51.4%,22.2%
"O=C(O)c1cc(Cl)ccc1NC(=O)[C@@H]1CCCN1C(=O)Cc1cccc(-c2ccoc2)c1 [Example 9, 5-chloro-2-[(1-{[3-(furan-3-yl)phenyl]acetyl}-L-prolyl)amino]benzoic acid]",98.1%,53.2%
"O=C(CCCNC(=O)c1cccc(-c2ccoc2)c1)Nc1ccc(Cl)cc1C(=O)O [Example 1, 5-chloro-2-{[4-({[3-(furan-3-yl)phenyl]carbonyl}amino)butanoyl]amino}benzoic acid]",95.5%,48.9%
"O=C(O)c1cc(Cl)ccc1NC(=O)[C@@H]1CCCN1C(=O)c1cccc(-c2ccoc2)c1 [Example 10, 5-chloro-2-[(-{[3-(furan-3-yl)phenyl]carbonyl}-L-prolyl)amino]benzoic acid]",73%,38.3%

# Target: T1, human PAI-1
# Experiment: Measurement of PAI-1 inhibitory activity of compound group 1 (t-PA, Spectrozyme t-PA chromogenic substrate)
# Settings: read-out: PAI-1 activity %
Compound,activity at 2.5 µM,activity at 10 µM
"O=C(Nc1ccc(C2=CCCCC2)cc1C(=O)O)c1ccc(C2CCCCC2)cc1 [Example 81, 5-(cyclohex-1-en-1-yl)-2-{[(4-cyclohexylphenyl)carbonyl]amino}benzoic acid]",1%,0%
"O=C(Nc1ccc(Cl)cc1C(=O)O)c1ccc(C(=O)C23CC4CC(CC(C4)C2)C3)cc1 [Example 56, 2-({[4-(adamantan-1-ylcarbonyl)phenyl]carbonyl}amino)-5-chlorobenzoic acid]",75.8%,0.7%
"O=C(Nc1ccc(Cl)cc1C(=O)O)c1ccc(Oc2ccccc2)cc1 [Example 42, 5-chloro-2-{[(4-phenoxyphenyl)carbonyl]amino}benzoic acid]",98.6%,3.8%
"CC1(c2ccc(C(=O)Nc3ccc(Cl)cc3C(=O)O)cc2)CCCCC1 [Example 98, 5-chloro-2-({[4-(1-methylcyclohexyl)phenyl]carbonyl}amino)benzoic acid]",41.5%,0.1%
"O=C(Nc1ccc(Cl)cc1C(=O)O)c1cccc(C2=CCCCC2)c1 [Example 79, 5-chloro-2-({[3-(cyclohex-1-en-1-yl)phenyl]carbonyl}amino)benzoic acid]",44.5%,1.6%
"O=C(Nc1ccc(Cl)cc1C(=O)O)c1ccc2c(c1)CCCC2 [Known compound (5), 5-chloro-2-[(5,6,7,8-tetrahydronaphthalene-2-ylcarbonyl)amino] benzoic acid, reference compound]",98.5%,18.8%
"COc1ccccc1-c1cccc(C(=O)Nc2ccc(Cl)cc2C(=O)O)c1 [Example 33, 5-chloro-2-{[(2′-methoxybiphenyl-3-yl)carbonyl]amino}benzoic acid]",92.8%,21.6%
"O=C(CCOc1ccc(C23CC4CC(CC(C4)C2)C3)cc1)Nc1ccc(Cl)cc1C(=O)O [Example 59, 2-({3-[4-(adamantan-1-yl)phenoxy]propanoyl}amino)-5-chlorobenzoic acid]",56.3%,1.4%
"O=C(Nc1ccc(-c2ccccc2)cc1)Nc1ccc(Cl)cc1C(=O)O [Example 71, 2-[(biphenyl-4-ylcarbamoyl)amino]-5-chlorobenzoic acid]",39.6%,2.1%
"O=C(O)c1cc(Cl)ccc1NC(=O)C1(c2cccc(-c3ccoc3)c2)CC1 [Example 35, 5-chloro-2-[({1-[3-(furan-3-yl)phenyl]cyclopropyl}carbonyl)amino]benzoic acid]",98.8%,15.6%
"O=C(Nc1ccc(Cl)cc1C(=O)O)C1=CC2(CCCCC2)CCC1 [Example 84, 5-chloro-2-[(spiro[5.5]undec-1-en-2-ylcarbonyl)amino]benzoic acid]",97%,5.5%
"Cc1ccc(-c2ccc(F)cc2)cc1NCC(=O)Nc1ccc(Cl)cc1C(=O)O [Example 72, 5-chloro-2-{[N-(4′-fluoro-4-methylbiphenyl-3-yl)glycyl]amino}benzoic acid]",31.1%,3.6%
"O=C(Nc1ccc(Cl)cc1C(=O)O)c1ccc(C#CC2CCCCC2)cc1 [Example 88, 5-chloro-2-({[4-(cyclohexylethynyl)phenyl]carbonyl}amino)benzoic acid]",35.5%,0.8%
"O=C(CC(c1ccccc1)c1ccccc1)Nc1ccc(Cl)cc1C(=O)O [Example 41, 5-chloro-2-[(3,3-diphenylpropanoyl)amino]benzoic acid]",72.4%,12.9%
"O=C(/C=C/c1cccc(C2=CCCCC2)c1)Nc1ccc(Cl)cc1C(=O)O [Example 90, 5-chloro-2-({(2E)-3-[3-(cyclohex-1-en-1-yl)phenyl]prop-2-enoyl}amino)benzoic acid]",65.3%,0.1%
"O=C(CCc1cccc(-c2ccoc2)c1)Nc1ccc(Cl)cc1C(=O)O [Example 36, 5-chloro-2-({3-[3-(furan-3-yl)phenyl]propanoyl}amino)benzoic acid]",95.7%,3.7%
"O=C(Nc1ccc(Cl)cc1C(=O)O)c1ccc(C(O)C23CC4CC(CC(C4)C2)C3)cc1 (stereo not shown) [Example 97, 2-[({4-[adamantan-1-yl(hydroxy)methyl]phenyl}carbonyl)amino]-5-chlorobenzoic acid]",89.9%,0.7%

Compound,activity at 2.5 µM,activity at 10 µM
"O=C(Cn1ccc2cc(Br)ccc21)Nc1ccc(Cl)cc1C(=O)O [Example 24, 2-{[(5-bromo-1H-indol-1-yl)acetyl]amino}-5-chlorobenzoic acid]",102%,19.1%
"O=C(Nc1ccc(Cl)cc1C(=O)O)c1ccc(OCc2ccc3ccccc3n2)cc1 [Example 100, sodium 5-chloro-2-({[4-(quinolin-2-ylmethoxy)phenyl]carbonyl}amino)benzoate]",92.1%,0.7%
"O=C(COc1cccc(-c2ccccc2)c1)Nc1ccc(Cl)cc1C(=O)O [Example 20, 2-{[(biphenyl-3-yloxy)acetyl]amino}-5-chlorobenzoic acid]",55.7%,1.9%
"O=C(O)c1cc(Cl)ccc1NC(=O)C1CCCN(C(=O)c2cccc(-c3ccccc3)c2)C1 (stereo not shown) [Example 31, 2-({[1-(biphenyl-3-ylcarbonyl)piperidin-3-yl]carbonyl}amino)-5-chlorobenzoic acid]",88%,20.2%
"Cc1cccc(-c2ccc(NC(=O)COc3cccc(-c4ccoc4)c3)c(C(=O)O)c2)c1 [Example 27, 4-({[3-(furan-3-yl)phenoxy]acetyl}amino)-3′-methylbiphenyl-3-carboxylic acid]",69.1%,0.7%
"O=C(COc1cccc(C23CC4CC(CC(C4)C2)C3)c1)Nc1ccc(Cl)cc1C(=O)O [Example 30, 2-({[3-(adamantan-1-yl)phenoxy]acetyl}amino)-5-chlorobenzoic acid]",19.3%,1.3%
"O=C(Cc1ccc(-c2ccccc2)cc1)Nc1ccc(Cl)cc1C(=O)O [Example 70, 2-[(biphenyl-4-ylacetyl)amino]-5-chlorobenzoic acid]",94.6%,4.4%
"O=C(COc1ccc(C23CC4CC(CC(C4)C2)C3)cc1)Nc1ccc(Cl)cc1C(=O)O [Example 21, 2-({[4-(adamantan-1-yl)phenoxy]acetyl}amino)-5-chlorobenzoic acid]",10%,0.3%
"O=C(Nc1ccc(C2CCCCC2)cc1C(=O)O)c1ccc(C2CCCCC2)cc1 [Example 82, 5-cyclohexyl-2-{[(4-cyclohexylphenyl)carbonyl]amino}benzoic acid]",1.7%,1.4%
"O=C(/C=C/c1ccc(-c2ccccc2)cc1)Nc1ccc(Cl)cc1C(=O)O [Example 78, 2-{[(2E)-3-(biphenyl-4-yl)prop-2-enoyl]amino}-5-chlorobenzoic acid]",25.3%,0.3%
"Cn1c(C(=O)Nc2ccc(Cl)cc2C(=O)O)cc2cc(-c3ccccc3)ccc21 [Example 48, 5-chloro-2-{[(1-methyl-5-phenyl-1H-indol-2-yl)carbonyl]amino}benzoic acid]",2.5%,1.7%
"O=C(Nc1ccc(Cl)cc1C(=O)O)c1ccc(C(=O)c2ccccc2)cc1 [Known compound (4), 5-chloro-2-{[(4-(phenylcarbonyl)phenyl]carbonyl}amino} benzoic acid, reference compound]",79.6%,8.1%
"O=C(COc1cccc(-c2ccoc2)c1)Nc1ccc(-c2ccccc2)cc1C(=O)O [Example 22, 4-({[3-(furan-3-yl)phenoxy]acetyl}amino)biphenyl-3-carboxylic acid]",29.9%,0.4%
"O=C(Nc1ccc(Cl)cc1C(=O)O)c1cccc(C#CC2CCCCC2)c1 [Example 87, 5-chloro-2-({[3-(cyclohexylethynyl)phenyl]carbonyl}amino)benzoic acid]",20.5%,1.2%
"CC(C)(C(=O)Nc1ccc(Cl)cc1C(=O)O)c1cccc(-c2ccoc2)c1 [Example 37, 5-chloro-2-({2-[3-(furan-3-yl)phenyl]-2-methylpropanoyl}amino)benzoic acid]",53.1%,5.9%
"O=C(O)c1cc(Cl)ccc1NC(=O)c1cc2cc(-c3ccccc3)ccc2n1CCCO [Example 60, 5-chloro-2-({[1-(3-hydroxypropyl)-5-phenyl-1H-indol-2-yl]carbonyl}amino)benzoic acid]",25%,0.9%
"O=C(O)c1cc(Cl)ccc1NC(=O)N1CCN(C(c2ccccc2)c2ccccc2)CC1 [Example 75, 5-chloro-2-({[4-(diphenylmethyl)piperazin-1-yl]carbonyl}amino)benzoic acid hydrochloride]",86.4%,4.7%

# From patent US10092537B2, “Use for PAI-1 inhibitor” (RENASCIENCE CO., LTD., priority 2013, dated 2018)
